We go through eleven molecules from publication PMC4501872 (The Journal of steroid biochemistry and molecular biology, 2015).

Molecules are shown by their SMILES. Read-outs that look alike come from different tables or passages of the source.

Data set [1] concerns the target T1, human SULT2A1 (Homo sapiens, UniProt Q06520).
T1 sequence (Q06520 1-285): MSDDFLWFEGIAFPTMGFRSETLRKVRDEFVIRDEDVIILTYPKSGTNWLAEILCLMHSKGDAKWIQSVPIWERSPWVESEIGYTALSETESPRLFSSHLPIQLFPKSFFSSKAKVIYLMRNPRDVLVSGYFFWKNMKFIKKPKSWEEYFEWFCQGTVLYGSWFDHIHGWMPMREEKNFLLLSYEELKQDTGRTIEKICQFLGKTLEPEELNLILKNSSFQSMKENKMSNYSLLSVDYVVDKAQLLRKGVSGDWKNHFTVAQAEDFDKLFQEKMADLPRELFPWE
The format is biochemical. The following applies: for SULT2A1 enzyme activity toward the substrate: control activity; for rate of 17-sulfate formation in the absence of celecoxib: 2 μM 35S-PAPS for 6D-E2, 20 μM PAPS for 17β-Eqn; for rate of 3-sulfate formation in the absence of celecoxib: 2 μM 35S-PAPS for 6D-E2, 20 μM PAPS for the others.

For data set [2] the following is noted: calculated, following a therapeutic dose of 200 mg; cited from earlier work.
[3] abbreviates: No celecoxib, 0.16 μM E2, PAPS 20 μM.
Setting [4] is: No celecoxib, 0.4 μM E2, PAPS 20 μM.
The mark [5] stands for this setting: Celecoxib (50 μM) added after PAPS (20 μM), 0.16 μM E2.
Setting [6] is: Celecoxib (50 μM) added after PAPS (20 μM), 0.4 μM E2.
Setting [7] is: Celecoxib (50 μM) added before PAPS (20 μM), 0.16 μM E2.
Where [8] appears, read: Celecoxib (50 μM) added before PAPS (20 μM), 0.4 μM E2.

In the case of `C[C@]12CC[C@H]3[C@@H](CC=C4C[C@@H](O)CC[C@@]43C)[C@@H]1CC[C@@H]2O` [AD, 5-androsten-3β,17β-diol], in data set [1] (0.4 μM substrate), the “SULT2A1 enzyme activity toward the substrate” value is reported as 8–9 nmol sulfate/min/mg protein.
With `C[C@]12CC[C@H]3[C@@H](CCC4=CC(=O)CC[C@@]43C)[C@@H]1CC[C@H]2O` [Epi-T, epi-testosterone], the “SULT2A1 enzyme activity toward the substrate” value in data set [1] (0.4 μM substrate) is on record as 8–9 nmol sulfate/min/mg protein. In addition, the “rate of sulfonation of Epi-T relative to T” value in data set [1] (control activities, 0.4 μM substrate) came out at 7 times.
For `C[C@]12CCc3c(ccc4cc(O)ccc34)[C@@H]1CC[C@@H]2O` [17β-Eqn, 17β-dihydroequilenin], in data set [1] (0.4 μM substrate), the “rate of 17-sulfate formation in the absence of celecoxib” value is listed as 11.4 pmol/min/mg protein and the “rate of 3-sulfate formation in the absence of celecoxib” value was found to be 56 pmol/min/mg protein.
As for `C[C@]12CC[C@@H]3c4cc(O)c(O)cc4CC[C@H]3[C@@H]1CC[C@@H]2O` [2-OH-E2, 2-hydroxyestradiol], the “rate of 3-sulfate formation in the absence of celecoxib” value in data set [1] (0.4 μM substrate) is reported as 2 pmol/min/mg protein.
For `C[C@]12CC=C3c4ccc(O)cc4CC[C@H]3[C@@H]1CC[C@@H]2O` [9D-E2, 9-dehydroestradiol], the “rate of 3-sulfate formation in the absence of celecoxib” value in data set [1] (0.4 μM substrate) came out at 14 pmol/min/mg protein.
Take `C[C@]12CC[C@H](O)CC1=CC[C@@H]1[C@@H]2CC[C@]2(C)C(=O)CC[C@@H]12` [DHEA, dehydroepiandrosterone]: the “SULT2A1 enzyme activity toward the substrate” value in data set [1] (0.4 μM substrate) is reported as 8–9 nmol sulfate/min/mg protein.
Take `C[C@]12CC[C@@H]3c4ccc(O)cc4CC[C@H]3[C@@H]1CC[C@@H]2O` [17β-E2, 17β-estradiol]: the “17-sulfate produced relative to 3-sulfate in the absence of celecoxib” value in data set [1] (0.4 μM substrate, Figure 6G) was “around 76 times”. In addition, in data set [1] (setting [3]), the “Product formed, 3-sulfate” value came to 150 pmol/min/mg protein; the “Product formed, 17-sulfate” value is listed as “Not detected”; the “Product formed, Total sulfates” value worked out at 150 pmol/min/mg protein. In data set [1] (setting [4]), the “Product formed, 3-sulfate” value is 306 pmol/min/mg protein; the “Product formed, 17-sulfate” value is listed as “Not detected”; the “Product formed, Total sulfates” value turned out to be 306 pmol/min/mg protein.
For `C[C@]12CC[C@@H]3c4ccc(O)c(O)c4CC[C@H]3[C@@H]1CC[C@@H]2O` [4-OH-E2, 4-hydroxyestradiol], in data set [1] (0.4 μM substrate), the “rate of 3-sulfate formation in the absence of celecoxib” value came to 15 pmol/min/mg protein.
Turning to `C[C@]12CC[C@@H]3c4ccc(O)cc4C=C[C@H]3[C@@H]1CC[C@@H]2O` [6D-E2, 6-dehydroestradiol], in data set [1] (0.4 μM substrate), the “rate of 17-sulfate formation in the absence of celecoxib” value worked out at 2 pmol/min/mg protein and the “rate of 3-sulfate formation in the absence of celecoxib” value was 51 pmol/min/mg protein.
Regarding `Cc1ccc(-c2cc(C(F)(F)F)nn2-c2ccc(S(N)(=O)=O)cc2)cc1` [celecoxib], the “effect on sulfonation of E1” value in data set [1] (0–80 μM celecoxib, 0.4 μM E1, p > 0.05, ANOVA) was “not affected significantly”. For the same molecule, the “celecoxib concentration at which 4-OH-E2 17-sulfate and 3-sulfate curves cross” value in data set [1] (0.4 μM 4-OH-E2, 20 μM PAPS) is reported as “approximately 30 μM”. In addition, the “enhancement of total sulfate product formation from 6D-E2” value in data set [1] (50 μM celecoxib, 0.4 μM 6D-E2) is reported as “over 8 fold”. Besides, in data set [1] (80 μM celecoxib, 0.4 μM 9D-E2), the “increase of total product formation from 9D-E2” value turned out to be 9.4 times. In addition, the “stimulation of 17β-Eqn–17-sulfate formation compared with absence of celecoxib” value in data set [1] (80 μM celecoxib, 0.4 μM 17β-Eqn) is 34 fold. The “celecoxib concentrations at which 17β-E2–3-S decreased” value in data set [1] (0.05, 0.2 and 0.4 μM 17β-E2) was ≥ 50 µM. For the same molecule, the “celecoxib concentration at which stimulation of 17β-E2–17-S formation peaked” value in data set [1] (0.2 and 0.4 μM 17β-E2) amounted to 50 µM. The “Product formed, 3-sulfate” value in data set [1] (setting [5]) is on record as 85 pmol/min/mg protein; in data set [1] (setting [6]), 177 pmol/min/mg protein; in data set [1] (setting [7]), 155 pmol/min/mg protein; in data set [1] (setting [8]), 363 pmol/min/mg protein. Besides, the “Product formed, 17-sulfate” value in data set [1] (setting [5]) turned out to be 199 pmol/min/mg protein; in data set [1] (setting [6]) it was 387 pmol/min/mg protein; in data set [1] (setting [7]) it was 432 pmol/min/mg protein; in data set [1] (setting [8]), 1076 pmol/min/mg protein. Moreover, the “Product formed, Total sulfates” value was found to be 284 pmol/min/mg protein in data set [1] (setting [5]), 564 pmol/min/mg protein in data set [1] (setting [6]), 587 pmol/min/mg protein in data set [1] (setting [7]) and 1439 pmol/min/mg protein in data set [1] (setting [8]). Further, in data set [1] (celecoxib 0–40 μM), the “effect on sulfonation of DHEA or AD at low concentrations” value is on record as “did not affect”. Also, the “effect on 17β-Eq-3-sulfate formation” value in data set [1] (celecoxib range studied (0–80 μM), 0.4 μM 17β-Eq) is recorded as “No inhibition”. Also, in data set [1] (data not shown), the “rate of 3-sulfate formation when inhibited by celecoxib (Figure 6G substrate)” value was < 1 pmol/min/mg protein. Also, the “increase of total sulfonation of 6D-E2, 17β-Eqn and 9D-E2” value in data set [1] (summary in discussion) is given as “over 8 fold”. For the same molecule, the “effect on formation of 3Me-E2–17β-sulfate” value in data set [1] (up to 80 μM celecoxib, 0.4 μM 3Me-E2, not saturated at 80 μM) is on record as “stimulated the formation of 3Me-E2–17β-sulfate in a concentration dependent manner”. Moreover, in data set [2], the “maximum liver concentration of celecoxib” value is 230 µM.
In the case of `C[C@]12CC[C@H]3C(=CCc4cc(O)ccc43)[C@@H]1CC[C@@H]2O` [17β-Eq, 17β-dihydroequilin], in data set [1] (0.4 μM substrate), the “rate of 3-sulfate formation in the absence of celecoxib” value was 46 pmol/min/mg protein.
